Laboratory results as given in US6723702B2, “Use of relaxin treat diseases related to vasoconstriction” (RAS Medical, Inc., priority 2000, dated 2004).

Assays:
[1] = system: Alveolar macrophages or spleen cells; assay: VEGF expression by RT-PCR in non-wound macrophages and immune cells; assay type: in vivo, rat; settings: following relaxin treatment
From the text: Resident macrophages and immune cells from other non-wound sources were also harvested from vehicle- and relaxin-treated rats, and assayed for VEGF expression by RT-PCR.

[2] = system: wound chambers at shoulder and hip of Sprague Dawley rats; assay: Hunt-Schilling wound chamber assay; assay type: in vivo, rat
Experimental: The effect of rhRLX on normal and ischemic wound healing in two rat models of dermal wound healing was evaluated. RhRLX in vehicle, or vehicle alone, was delivered by subcutaneous infusion to Sprague-Dawley rats using an implanted ALZET7 osmotic pump (Alza Corp., Mountain View, Calif.).
In the first model, Hunt-Schilling wound chambers were implanted subcutaneously at either the shoulder or the hip region. The fluid and cells contained within each wound chamber were collected on day 18 for analysis of VEGF protein and mRNA. VEGF protein was detected and measured using ELISA. VEGF-encoding mRNA was detected using Northern blotting and RT-PCR. The granulation tissue within the wound chambers was collected for histological and immunohistochemical evaluation.
Stainless steel mesh cylinders (0.9 cm×3.4 cm) fitted with silicone rubber plugs at both ends were autoclaved prior to implantation. Chambers were implanted into two separate subcutaneous pockets (“Site 1” on the shoulder and “Site 2” on the hip) on the backs of Sprague Dawley rats. At the same time, osmotic pumps were implanted in a subcutaneous pocket at site distal to that of the chambers. At 18 days, chambers were carefully dissected free from the interstitium, and fluid aspirated using an 18-gauge needle through the silicone plugs at the end of the cylinder, and immediately placed on ice. Cells suspended within the fluid were pelleted by centrifugation, and cells and fluid were separated. Total RNA was harvested using RNAzol (Tel-Test, Inc., Friendswood, Tex.), according to vendor instructions. Fluid was immediately frozen, and assayed at a later date for cyokine content.
Primers were purchased from BioSource International (Camarillo, Calif.) and visualized using agarose gel electrophoresis.
Sense and anti-sense primers for use with the real time RT-PCR, ABI Prism 7700 Sequence Detection System were designed using the PrimerExpress version 1.0 software (PE Applied Biosystems, Inc.). Rat and human specific primer/probe sets included those for GAPDH, bFGF, the VEGF 164 aa or 120 aa rat isoforms, and their respective human homologues (VEGF 165 and VEGF 121). ABI PRISM specific primer/probes were purchased from BioSource International Inc. or PE Applied Biosystems.
RT-PCR was performed on 150 ng for the analysis of VEGF and bFGF mRNA expression. Ten nanograms of total RNA was used for GAPDH niRNA expression. PCR products using the ABI Prism 7700 Sequence Detection system (all reactions in a total volume of […]) were generated using primer/probe annealing temperatures of 58° C. and 35 cycles of PCR. Data were analyzed using Sequence Detector v1.6.3 software (Applied Biosystems/PE).
Relaxin was administered systemically to rats using osmotic pumps. In order to assess relaxin's ability to modulate expression of angiogenic cytokines at wound sites, Hunt-Schilling wound chambers were used for fluid and inflammatory cell collection. Wound chambers were implanted subcutaneously at two sites, the shoulder and the hip, distal to the site of pump implantation. Fluid and cells were collected at a point (18 days) during the healing time course when endogenous angiogenic activity and the cellular source, macrophages, were known to be present. Total RNA was harvested from wound cells and analyzed by RT-PCR for VEGF transcripts. When analyzed on an agarose gel, there were two distinct bands comprising the amplified products, corresponding to the 121aa and 164aa, isoforms of VEGF.
To assess the effect of rhRlx treatment on granulation tissue formation in normal and ischemic wounds, Hunt-Schilling wound chambers were implanted subcutaneously in either the shoulder or the more hypoxic hip region of female Sprague Dawley rats (Charles River Laboratories, Mass.). The wound chambers, fine stainless steel mesh cylinders sealed with medical grade silicone, provide a defined dead space for granulation tissue formation. […]

THP-1 cells = assay: THP-1 cells: secreted VEGF protein by ELISA; assay type: cell-based, human
Experimental: THP-1 cells were obtained from the American Type Culture Collection (ATCC# TIB202), and grown in Iscove's medium supplemented with 10% fetal bovine serum and 2 mM L-glutamine. For experiments, THP-1 cells were cultured at 5×10^5 cells/ml in 24-well plates, treated and allowed to incubate for various times at 37° C. Conditioned media and cells were then collected, and cells removed by centrifugation at 500 g for 5 min. Media were stored at −80° C. until assayed.
VEGF protein was quantified in an ELISA kit purchased from R & D Systems (Minneapolis, Minn.). The lower limit of sensitivity of the assay was 10 pg/ml.
Because macrophages are the inflammatory cells predominantly responsible for the angiogenic response that occurs during healing, a monocyte/macrophage cell line shown previously to bind relaxin with high affinity (THP-1) (Parsell et al. (1996) J. Biol. Chem. 271:27936-27941) was tested for relaxin inducibility of VEGF and bFGF. THP-1 cells were cultured in vitro, treated with relaxin (100 ng/ml) for 3 hours, and assayed for VEGF and bFGF mRNA induction. […] In order to determine whether the increase in VEGF mRNA observed following short-term relaxin treatment was reflected by an elevation in secreted VEGF protein, THP-1 cells were treated with relaxin (0.01-100 ng/ml) for 24 h, the conditioned media collected, and VEGF content in the media quantified by ELISA. […]

[3] = system: human primary umbilical vein, aortic, foreskin, and pulmonary endothelial cells; assay: 3H-thymidine uptake, human endothelial cells; assay type: cell-based; settings: serum-free medium
Experimental: Endothelial cells were derived from explant cultures of human neonatal foreskin and rat aorta. Primary human endothelial cells from umbilical vein, aorta, and lung were purchased from Clonetics-BioWhittaker Corporation (San Diego, Calif.) and cultured according to vendor instructions. ^3H-thymidine uptake was performed, as previously described, in serum-free medium. Unemori et al. (1994) Exp. Cell Res. 21:166-171.
Relaxin was then assayed for the ability to induce proliferation of endothelial cells directly. Relaxin's potential mitogenic effect was tested on human primary umbilical vein, aortic, foreskin, and pulmonary endothelial cells, as well as rat aortic endothelial cells. […] Alterations in other aspects of endothelial cell phenotype that are believed to correlate with angiogenesis were also tested. Relaxin had no effect on collagen expression, judged by SDS-PAGE of ^3H-proline-labeled cellular proteins; or metalloproteinase or tissue inhibitor of metalloproteinase-1 secretion, assessed by gelatin zymography. […] Therefore, relaxin had no apparent effect directly on endothelial cells.

[4] = wound chamber cells, both shoulder and hip region, day 18
[5] = wound chambers in the hip region

Question: For “rhRLX: recombinant human relaxin, identical in amino acid sequence to the product of the human H2 gene; A chain of 24, B chain of 29 amino acids”, which VEGF expression [1] is on record?
Answer: The VEGF expression was “did not show an upregulation”.

Question: What about the “expression of VEGF 164 mRNA” value ([2]; anteriorly placed (shoulder) wound chamber, real-time RT-PCR) of the same substance?
Answer: The value was “upregulated”.

Question: What about the “bFGF transcripts in wound cells” value ([2]; both shoulder and hip chambers) of the same substance?
Answer: Its value is “significant upregulation”.

Question: What about the “VEGF 120 mRNA” value ([2]; both sites, real-time RT-PCR) of the same substance?
Answer: The value was “trends toward increases”.

Question: And the “expression of VEGF 164 mRNA” value ([2]; chamber placed on the hip, real-time RT-PCR)?
Answer: The value was “trend toward an increase”.

Question: And the “bFGF, and VEGF expression in wounds cells” value ([2]; hip region (Example 7))?
Answer: The value was “increase”.

Question: And the “new blood vessel formation” value ([2]; hip region (Example 7))?
Answer: Its value is “increase”.

Question: What about the “Expression of both VEGF isoforms, RT-PCR on agarose gel” value ([2]; wound cells, 18 days) of the same substance?
Answer: The value was “appeared to be enhanced”.

Question: What about the “VEGF mRNA increase compared to vehicle-treated rats” value [2, 4] of the same substance?
Answer: Its value is 31%.

Question: And the “bFGF mRNA increase compared to vehicle-treated rats” value [2, 4]?
Answer: The value was 59%.

Question: And the “weight of granulation tissue” value ([2]; wound chambers at the hip region, day 18 (Example 7))?
Answer: The value was “significant increase”.

Question: What about the “amount of extracellular matrix deposition” value [2, 5] of the same substance?
Answer: The value was “increased”.

Question: And the “amount of granulation tissue” value [2, 5]?
Answer: The value was 255 mg.

Question: And the number of capillaries [2, 5]?
Answer: Its number of capillaries is “increased”.

Question: What about the tissue weight ([2]; wound chambers in the shoulder region) of the same substance?
Answer: Its tissue weight is 283 mg.

Question: And the VEGF protein secretion (THP-1 cells; 0.01-100 ng/ml for 24 h, dose-dependent)?
Answer: Its VEGF protein secretion is “approximately 150%”.

Question: And the “threshold relaxin concentration required for stimulation of VEGF protein secretion” value (THP-1 cells; 24 h)?
Answer: The value was 0.2 to 1.0 ng/mL.

Question: What about the 3H-thymidine uptake [3] of the same substance?
Answer: Its 3H-thymidine uptake is “did not alter”.
